In patent publication US6831075B2, “Heterocyclic substituted pyrazolones” (Cephalon, Inc., priority 1999, dated 2004):

Assays:
Assay type in all cases: biochemical
baculoviral GST-MLK2KDLZ = molecular target: T1, baculoviral GST-MLK2KDLZ (Homo sapiens, UniProt Q02779); experiment: Mixed Lineage Kinase-2 inhibition assay (Millipore Multiscreen plate, 32P); settings: 1 uM compound; 100 μM ATP
T1 construct: 3 μg/ml of baculoviral GST-MLK2KDLZ; GST (N); host or cells: baculovirus expression system
Procedure, shortened: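 Baculoviral GST-MLK2KDLZ (3 μg/ml) phosphorylating myelin basic protein (500 μg/ml) with 100 μM ATP plus [γ-32P]ATP in Hepes pH 7, MgCl2, 2% DMSO, 15 min at 37° C. TCA-precipitated protein counted by scintillation.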

baculoviral GST-MLK3KD = molecular target: T2, baculoviral GST-MLK3KD (Homo sapiens, UniProt Q16584); experiment: Mixed Lineage Kinase-3 inhibition assay (Millipore Multiscreen plate, 32P); settings: 1 uM compound; 100 μM ATP
T2 construct: 2 μg/ml of baculoviral GST-MLK3KD; GST (N); host or cells: baculovirus expression system
T2 sequence (Q16584 117-379 limits assumed): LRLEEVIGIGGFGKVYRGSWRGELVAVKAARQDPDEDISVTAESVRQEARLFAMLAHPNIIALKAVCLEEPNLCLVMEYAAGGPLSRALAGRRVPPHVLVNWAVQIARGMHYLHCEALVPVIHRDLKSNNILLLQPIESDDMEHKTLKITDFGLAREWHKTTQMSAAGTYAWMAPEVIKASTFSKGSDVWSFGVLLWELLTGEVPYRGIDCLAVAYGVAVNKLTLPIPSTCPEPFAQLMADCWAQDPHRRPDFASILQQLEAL
Procedure, shortened: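 Radiometric filter-plate assay: 2 μg/ml baculoviral GST-MLK3KD with 500 μg/ml myelin basic protein, 100 μM ATP plus [γ-32P]ATP, in 20 mM Hepes pH 7, 10 mM MgCl2, 1 mM DTT, 2% DMSO. Incubated 15 min at 37 °C, stopped and precipitated with cold TCA, washed, then scintillation counted.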

[1] = molecular target: T3, recombinant human baculoviral VEGFR2 cyctoplasmic domain (Homo sapiens, UniProt P35968); experiment: VEGFR2 kinase inhibition assay (ELISA-based, time-resolved fluorescence); settings: 1 uM compound; 30 μM ATP
T3 construct: recombinant human baculoviral VEGFR2 cyctoplasmic domain; host or cells: baculovirus expression system
T3 sequence (P35968 786-1356 limits assumed): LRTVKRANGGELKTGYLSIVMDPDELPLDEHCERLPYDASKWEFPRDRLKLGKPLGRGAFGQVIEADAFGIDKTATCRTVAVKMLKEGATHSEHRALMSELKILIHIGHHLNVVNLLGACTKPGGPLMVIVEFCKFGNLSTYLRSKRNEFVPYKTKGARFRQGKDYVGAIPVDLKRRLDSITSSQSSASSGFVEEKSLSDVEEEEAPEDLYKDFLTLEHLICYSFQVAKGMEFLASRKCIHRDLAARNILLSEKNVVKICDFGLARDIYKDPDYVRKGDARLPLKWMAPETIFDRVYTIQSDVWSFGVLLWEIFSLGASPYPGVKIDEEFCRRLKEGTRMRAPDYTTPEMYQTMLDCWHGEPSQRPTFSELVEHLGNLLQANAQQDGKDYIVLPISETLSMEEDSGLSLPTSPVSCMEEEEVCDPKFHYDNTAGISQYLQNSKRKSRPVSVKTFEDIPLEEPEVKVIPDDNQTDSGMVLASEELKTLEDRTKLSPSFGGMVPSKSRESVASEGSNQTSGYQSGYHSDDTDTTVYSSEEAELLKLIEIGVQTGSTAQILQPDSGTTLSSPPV

baculoviral GST-MLK1KD = molecular target: T4, baculoviral GST-MLK1KD (Homo sapiens, UniProt P80192); experiment: Mixed Lineage Kinase-1 inhibition assay (Millipore Multiscreen TCA in-plate, 32P); settings: 1 uM compound; 60 μM ATP
T4 construct: 1 μg/ml of baculoviral GST-MLK1KD; GST (N); host or cells: baculovirus expression system
T4 sequence (P80192 144-412 limits assumed): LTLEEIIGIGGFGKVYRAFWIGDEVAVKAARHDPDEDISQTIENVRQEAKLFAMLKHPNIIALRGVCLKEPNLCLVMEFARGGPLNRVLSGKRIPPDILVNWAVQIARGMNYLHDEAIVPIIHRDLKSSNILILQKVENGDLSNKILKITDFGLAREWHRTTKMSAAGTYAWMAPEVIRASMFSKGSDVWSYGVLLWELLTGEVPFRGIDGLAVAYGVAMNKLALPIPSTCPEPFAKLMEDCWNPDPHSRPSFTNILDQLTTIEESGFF
Procedure, shortened: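 Radiometric assay: 1 μg/ml kinase with 500 μg/ml myelin basic protein, 60 μM ATP plus [γ-32P]ATP, pH 7.0 Hepes buffer, 10 mM MgCl2, 2% DMSO, test compound at 1 μM; 15 min at 37 °C. TCA-precipitated protein counted by scintillation.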

[2] = molecular target: T5, baculovirus-expressed human trkA cytoplasmic domain (Homo sapiens, UniProt P04629); experiment: trkA tyrosine kinase inhibition assay (ELISA-based); settings: 1 uM compound; 40 μM ATP
T5 construct: baculovirus-expressed human trkA cytoplasmic domain; host or cells: baculovirus expression system
T5 sequence (P04629 440-796 limits assumed): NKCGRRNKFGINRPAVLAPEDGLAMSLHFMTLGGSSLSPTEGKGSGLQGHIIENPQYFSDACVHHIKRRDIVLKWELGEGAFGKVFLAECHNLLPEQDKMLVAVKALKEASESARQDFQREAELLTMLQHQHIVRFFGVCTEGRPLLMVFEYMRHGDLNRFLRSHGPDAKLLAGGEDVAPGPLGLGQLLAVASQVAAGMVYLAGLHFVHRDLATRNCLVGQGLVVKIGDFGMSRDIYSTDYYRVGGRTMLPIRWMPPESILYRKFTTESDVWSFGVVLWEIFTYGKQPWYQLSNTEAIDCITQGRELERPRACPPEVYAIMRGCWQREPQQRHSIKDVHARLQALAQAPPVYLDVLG
Procedure, shortened: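 ELISA with PLC-γ1/GST fusion substrate coated on plate; kinase reaction in 50 mM Hepes pH 7.4, 40 μM ATP, 10 mM MnCl2, 0.1% BSA, 2% DMSO, 15 min at 37°C, started by enzyme. Phosphotyrosine detected by anti-phosphotyrosine and alkaline phosphatase secondary antibody with amplified read-out; inhibition fitted by variable-slope sigmoidal dose-response.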

T1 sequence (Q02779 98-440 limits assumed): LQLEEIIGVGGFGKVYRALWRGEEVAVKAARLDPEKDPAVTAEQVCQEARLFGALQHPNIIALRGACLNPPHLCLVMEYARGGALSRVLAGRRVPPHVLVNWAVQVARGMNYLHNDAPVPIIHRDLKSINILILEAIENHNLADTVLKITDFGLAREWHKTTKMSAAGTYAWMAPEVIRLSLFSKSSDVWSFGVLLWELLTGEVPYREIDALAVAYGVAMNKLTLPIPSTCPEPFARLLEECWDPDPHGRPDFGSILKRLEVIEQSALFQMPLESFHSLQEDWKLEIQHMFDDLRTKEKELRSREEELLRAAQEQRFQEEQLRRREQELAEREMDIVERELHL

SMILES	MLK-2 Kinase % inhibition @ 1 uM (baculoviral GST-MLK2KDLZ) [%]	MLK-3 Kinase % inhibition @ 1 uM (baculoviral GST-MLK3KD) [%]	VEGFR-2 kinase % inhibition @ 1 uM [1] [%]	MLK-1 Kinase % inhibition @ 1 uM (baculoviral GST-MLK1KD) [%]	trkA % inhibition @ 1 uM [2] [%]
N#CCCn1cc(C=C2C(=O)NN=C2c2cccs2)c2ccccc21 [Compound 66]	5	11	32	11	32
N#CCCn1cc(C=C2C(=O)NN=C2c2ccco2)c2ccccc21 [Compound 67]	−1	8	20	3	40
O=C1NN=C(c2ccoc2)C1=Cc1cn(Cc2ccccc2)c2ccccc12 [Compound 68]	16	20	26	17	42
O=C1NN=C(c2ccco2)C1=Cc1cn(Cc2ccccc2)c2ccccc12 [Compound 69]	4	9	5	21	35
O=C1NN=C(c2nccs2)C1=Cc1cn(Cc2ccccc2)c2ccccc12 [Compound 70]	5	15	51	21	32
O=C1NN=C(c2ccco2)C1=Cc1cn(CCOCc2ccccc2)c2ccccc12 [Compound 71]	3	9	−1	9	15
O=C1NN=C(c2nccs2)C1=Cc1cn(CCOCc2ccccc2)c2ccccc12 [Compound 72]	3	28	3	14	38
CC(C)Cn1cc(C=C2C(=O)NN=C2c2nccs2)c2ccccc21 [Compound 73]	12	5	15	−1	8
O=C1NN=C(c2cccs2)C1=Cc1cn(Cc2ccccc2)c2ccccc12 [Compound 75]	−5	24	32	5	23
